Measurements: ChEMBL document CHEMBL3351906, “Bioactive triterpenoid saponins and phenolic compounds against glioma cells” (Bioorg Med Chem Lett, 2014)

Assays:
U-251 = assay: Inhibition of cell proliferation of human U251 cells assessed as cell viability at 100 uM after 72 hrs by sulforhodamine B assay; type: functional; settings: U-251, 72 h, read-out: Activity
C6 = assay: Inhibition of cell proliferation of rat C6 cells assessed as cell viability at 100 uM after 72 hrs by sulforhodamine B assay; type: functional; settings: C6, 72 h, read-out: Activity

SMILES	viability at 100 µM (U-251) [%]	viability at 100 µM (C6) [%]
CC(C)=CCC[C@@](C)(O)[C@H]1CC[C@]2(C)[C@@H]1[C@H](O)C[C@@H]1[C@@]3(C)CC[C@H](O[C@@H]4O[C@H](CO)[C@@H](O)[C@H](O)[C@H]4O[C@@H]4O[C@H](CO)[C@@H](O)[C@H](O)[C@H]4O)C(C)(C)[C@@H]3CC[C@]12C	77.5	97.2
CC1(C)CC[C@]2(C(=O)O)CC[C@]3(C)C(=CC[C@@H]4[C@@]5(C)CC[C@H](O)C(C)(C)[C@@H]5CC[C@]43C)[C@@H]2C1 [OLEANOLIC_ACID]	67.8	59.2
CC(C)=CCC[C@](C)(O[C@@H]1O[C@H](CO[C@@H]2OC[C@H](O)[C@H](O)[C@H]2O)[C@@H](O)[C@H](O)[C@H]1O)[C@H]1CC[C@]2(C)[C@@H]1[C@H](O)C[C@@H]1[C@@]3(C)CC[C@H](O)C(C)(C)[C@@H]3[C@@H](O)C[C@]12C [GINSENOSIDE F3]	104	93.6
C/C=C/C(=O)OC[C@H]1O[C@@H](O[C@H]2[C@H](O[C@H]3CC[C@]4(C)[C@H]5C[C@@H](O)[C@@H]6[C@@H]([C@](C)(CCC=C(C)C)O[C@@H]7O[C@H](CO[C@@H]8O[C@H](CO)[C@@H](O)[C@H](O)[C@H]8O)[C@@H](O)[C@H](O)[C@H]7O)CC[C@@]6(C)[C@]5(C)CC[C@H]4C3(C)C)O[C@H](CO)[C@@H](O)[C@@H]2O)[C@H](O)[C@@H](O)[C@@H]1O	97.2	99.4
CC(C)=CCC[C@@](C)(O)[C@H]1CC[C@]2(C)[C@@H]1[C@H](O)C[C@@H]1[C@@]3(C)CC[C@H](O)C(C)(C)[C@@H]3[C@@H](O[C@@H]3O[C@H](CO)[C@@H](O)[C@H](O)[C@H]3O[C@@H]3O[C@@H](C)[C@H](O)[C@@H](O)[C@H]3O)C[C@]12C	99	95.5
CC1(C)CC[C@]2(C(=O)O)[C@H](O)C[C@]3(C)C(=CC[C@@H]4[C@@]5(C)CC[C@H](O)C(C)(C)[C@@H]5CC[C@]43C)[C@H]2C1 [ECHINOCYSTIC ACID]	33.7	52.3
CC(C)=CCC[C@](C)(O)[C@H]1CC[C@]2(C)[C@@H]1[C@H](O)C[C@@H]1[C@@]3(C)CC[C@H](O[C@@H]4O[C@H](CO)[C@@H](O)[C@H](O)[C@H]4O[C@@H]4O[C@H](CO)[C@@H](O)[C@H](O)[C@H]4O)C(C)(C)[C@@H]3CC[C@]12C	99.1	53.1
CC(C)=CCC[C@](C)(O[C@@H]1O[C@H](CO[C@@H]2OC[C@H](O)[C@H](O)[C@H]2O)[C@@H](O)[C@H](O)[C@H]1O)[C@H]1CC[C@]2(C)[C@@H]1[C@H](O)C[C@@H]1[C@@]3(C)CC[C@H](O[C@@H]4O[C@H](CO)[C@@H](O)[C@H](O)[C@H]4O[C@@H]4O[C@H](CO)[C@@H](O)[C@H](O)[C@H]4O)C(C)(C)[C@@H]3CC[C@]12C [GINSENOSIDE RB2]	77.5	80.9
CC(C)=CCC[C@](C)(O[C@@H]1O[C@H](CO)[C@@H](O)[C@H](O)[C@H]1O)[C@H]1CC[C@]2(C)[C@@H]1[C@H](O)C[C@@H]1[C@@]3(C)CC[C@H](O[C@@H]4O[C@H](CO)[C@@H](O)[C@H](O)[C@H]4O[C@@H]4O[C@H](CO)[C@@H](O)[C@H](O)[C@H]4O)C(C)(C)[C@@H]3[C@@H](O)C[C@]12C	94.5	97.5
C/C=C(/C)C(=O)O[C@H]1[C@H](O)[C@]2(CO)[C@H](O)C[C@]3(C)C(=CC[C@@H]4[C@@]5(C)CC[C@H](O[C@@H]6O[C@H](C(=O)O)[C@@H](O[C@@H]7O[C@H](CO)[C@@H](O)[C@H](O)[C@H]7O)[C@H](O)[C@H]6O[C@@H]6O[C@H](CO)[C@@H](O)[C@H](O)[C@H]6O)[C@](C)(CO)[C@@H]5CC[C@]43C)[C@@H]2CC1(C)C	94.6	90.7
O=C(O)[C@H]1O[C@@H](Oc2cc3oc(-c4ccccc4)cc(=O)c3c(O)c2O)[C@H](O)[C@@H](O)[C@@H]1O [BAICALIN]	91.8	80.4
C[C@@H]1O[C@@H](OC[C@H]2O[C@@H](Oc3c(-c4ccc(O)c(O)c4)oc4cc(O)cc(O)c4c3=O)[C@H](O)[C@@H](O)[C@@H]2O)[C@H](O)[C@H](O)[C@H]1O [RUTIN]	61.5	62.1
O=C(/C=C/c1ccc(O)c(O)c1)O[C@H](Cc1ccc(O)c(O)c1)C(=O)O [ROSMARINIC ACID]	70.8	54.5
CC(C)=CCC[C@](C)(O[C@@H]1O[C@H](CO)[C@@H](O)[C@H](O)[C@H]1O)[C@H]1CC[C@]2(C)[C@@H]1[C@H](O)C[C@@H]1[C@@]3(C)CC[C@H](O[C@@H]4O[C@H](CO)[C@@H](O)[C@H](O)[C@H]4O)C(C)(C)[C@@H]3[C@@H](O)C[C@]12C	92.5	65.6
CC(C)=CCC[C@](C)(O[C@@H]1O[C@H](CO[C@@H]2OC[C@@H](O)[C@H](O)[C@H]2O)[C@@H](O)[C@H](O)[C@H]1O)[C@H]1CC[C@]2(C)[C@@H]1[C@H](O)C[C@@H]1[C@@]3(C)CC[C@H](O[C@@H]4O[C@H](CO)[C@@H](O)[C@H](O)[C@H]4O[C@@H]4O[C@H](CO)[C@@H](O)[C@H](O)[C@H]4O)C(C)(C)[C@@H]3CC[C@]12C [GINSENOSIDE RB3]	95.1	57.8
CC(C)=CCC[C@](C)(O[C@@H]1O[C@H](CO)[C@@H](O)[C@H](O)[C@H]1O)[C@H]1CC[C@]2(C)[C@@H]1[C@H](O)C[C@@H]1[C@@]3(C)CC[C@H](O)C(C)(C)[C@@H]3[C@@H](O)C[C@]12C [GINSENOSIDE F1]	80.9	92
O=C(/C=C/c1ccc(O)c(O)c1)O[C@@H]1C[C@](O)(C(=O)O)C[C@@H](O)[C@H]1O [CHLOROGENIC ACID]	56.6	77.4
CC(C)=CCC[C@](C)(O[C@@H]1O[C@H](CO[C@@H]2O[C@H](CO)[C@@H](O)[C@H](O)[C@H]2O)[C@@H](O)[C@H](O)[C@H]1O)[C@H]1CC[C@]2(C)[C@@H]1[C@H](O)C[C@@H]1[C@@]3(C)CC[C@H](O[C@@H]4O[C@H](CO)[C@@H](O)[C@H](O)[C@H]4O[C@@H]4O[C@H](CO)[C@@H](O)[C@H](O)[C@H]4O)C(C)(C)[C@@H]3CC[C@]12C [GINSENOSIDE RB1]	76.1	79
CC(C)=CCC[C@](C)(O)[C@H]1CC[C@]2(C)[C@@H]1[C@H](O)C[C@@H]1[C@@]3(C)CC[C@H](O)C(C)(C)[C@@H]3[C@@H](O[C@@H]3O[C@H](CO)[C@@H](O)[C@H](O)[C@H]3O[C@@H]3O[C@@H](C)[C@H](O)[C@@H](O)[C@H]3O)C[C@]12C [GINSENOSIDE RG2]	103	96.5
CC(C)=CCC[C@](C)(O[C@@H]1O[C@H](CO[C@H]2O[C@H](CO)[C@@H](O)[C@@H]2O)[C@@H](O)[C@H](O)[C@H]1O)[C@H]1CC[C@]2(C)[C@@H]1[C@H](O)C[C@@H]1[C@@]3(C)CC[C@H](O)C(C)(C)[C@@H]3[C@@H](O)C[C@]12C [GINSENOSIDE F5]	102	92.8
